Source: patent US5190741A, “Agents for diagnosing and treating melanomas, aromatic halogenated derivatives usable as such agents and their preparation” (Institut National de la Sante et de la Recherche Medicale …, priority 1989, dated 1993)

Test system: pulmonary colonies of B16 melanoma
Assay: Autoradiograms, pulmonary metastasing colonies after i.v. B16 cells
Type: in vivo, mouse
Details: 1 to 7 hours after injection
Method: The autoradiograms are carried out in mice bearing grafted melanomas:
The animals bearing grafted tumors receive the labelled compounds in the form of the hydrochloride in saline solution (3.7 to 5×10^5 Bq/animal) in a caudal vein. At different time intervals after the administration of the compounds (from 15 minutes to 24 hours) the mice are anesthetized with ether and plunged into liquid nitrogen.
30 μm sections, parallel to a sagittal plane, are prepared in a freezing microtome (TS 260, SLEE) according to the protocol described by Ullberg. The sections, dehydrated in the cold, are applied to sensitive films, Ultrofim ^3 H (LKB, 2208-190) or Hyperfilm ^3 H (Amersham, RPN 535).
After the i.v. injection of B16 melanoma cells the appearance of predominantly pulmonary metastasing colonies is noticed.

## CCNCCNC(=O)c1ccc(I)cc1 [Derivative B, N-(2-ethylaminoethyl) 4-iodo benzamide]
  visualization of pulmonary colonies: readily visualized
